Measured values taken from PubChem BioAssay (NCI).
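The compound was tested at five concentrations on cells cultured in 96-well plates, with a 48-hour exposure period. The concentration for 50% growth inhibition is given as GI50. TGI: concentration producing complete growth inhibition.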

Assays:
Assay in all cases: NCI tumour cell line growth inhibition, 48 h
CAKI-1 renal = tested on: CAKI-1 renal
NCI-H23 lung = tested on: NCI-H23 lung
HCT-15 colon = tested on: HCT-15 colon
SK-OV-3 ovarian = tested on: SK-OV-3 ovarian
RXF 393 renal = tested on: RXF 393 renal
NCI-H226 lung = tested on: NCI-H226 lung
HOP-18 NSCLC = tested on: HOP-18 NSCLC
IGROV1 ovarian = tested on: IGROV1 ovarian
786-0 renal = tested on: 786-0 renal
SR leukemia = tested on: SR leukemia

SMILES	GI50 (CAKI-1 renal)	TGI (CAKI-1 renal)	GI50 (NCI-H23 lung)	TGI (NCI-H23 lung)	GI50 (HCT-15 colon)	TGI (HCT-15 colon)	GI50 (SK-OV-3 ovarian)	TGI (SK-OV-3 ovarian)	GI50 (RXF 393 renal)	TGI (RXF 393 renal)	GI50 (NCI-H226 lung)	TGI (NCI-H226 lung)	GI50 (HOP-18 NSCLC)	TGI (HOP-18 NSCLC)	GI50 (IGROV1 ovarian)	TGI (IGROV1 ovarian)	GI50 (786-0 renal)	TGI (786-0 renal)	TGI (SR leukemia)	GI50 (SR leukemia)
CC(C)(C)C(=O)[CH-]C(=O)C(C)(C)C.CC(C)(C)C(=O)[CH-]C(=O)C(C)(C)C.CN(C)c1ccc([O-])cc1.CN(C)c1ccc([O-])cc1.[Ti+4]	> 100 µM	> 100 µM	> 100 µM	> 100 µM	> 100 µM	> 100 µM	> 100 µM	> 100 µM	14.4 µM	> 100 µM	> 100 µM	> 100 µM	> 100 µM	> 100 µM	> 100 µM	> 100 µM	68.2 µM	> 100 µM		
CCOC(=O)NC(=O)c1cn(CCN2CCN(C(=O)CCCCCCCCCCC(=O)N3CCN(CCn4cc(C(=O)NC(=O)OCC)c(=O)[nH]c4=O)CC3)CC2)c(=O)[nH]c1=O		> 100 µM		> 100 µM				> 100 µM				> 100 µM		> 100 µM		> 100 µM		> 100 µM	> 100 µM	
CC(C)(C)OC(=O)NCCCCCCCn1c2c(c3ccccc3c1=O)C(=O)c1ccccc1-2	32.2 µM	73 µM	26 µM	> 100 µM	41.7 µM	> 100 µM	31.6 µM	> 100 µM	16.2 µM	43.5 µM	31.3 µM	77.8 µM			26.9 µM	> 100 µM	23.2 µM	55.4 µM	> 100 µM	4.95 µM
O=C(O)[C@@H](Cc1ccc2ccccc2c1)NC(=O)n1c2ccccc2c2ccccc21	3.54 µM	46.2 µM	3.72 µM	26.7 µM	3.29 µM	28.6 µM	5.64 µM	44.5 µM	1.57 µM	7.15 µM	2.1 µM	9.32 µM			4.06 µM	80.7 µM	0.708 µM	12.2 µM	> 100 µM	4.12 µM
O=C(N[C@@H](C[Se][Se]C[C@H](NC(=O)c1ccc(Br)cc1F)C(=O)O)C(=O)O)c1ccc(Br)cc1F	> 100 µM	> 100 µM	> 100 µM	> 100 µM	> 100 µM	> 100 µM	> 100 µM	> 100 µM	> 100 µM	> 100 µM	> 100 µM	> 100 µM			> 100 µM	> 100 µM	> 100 µM	> 100 µM	> 100 µM	95.4 µM
CCN(C(=O)/C=C/c1ccco1)c1ccccc1		> 100 µM		> 100 µM		> 100 µM		> 100 µM		> 100 µM		> 100 µM				> 100 µM		> 100 µM	> 100 µM	
COC(=O)C1(O)CC(=O)CCC1c1ccc(OC)cc1 (stereo unspecified)		> 100 µM		> 100 µM		> 100 µM		> 100 µM				> 100 µM		> 100 µM		> 100 µM		> 100 µM	> 100 µM	
COc1cnc2c(c1)C(=O)c1c-2n(CCCN2CCN(C)CC2)c(=O)c2cc([N+](=O)[O-])ccc12	1.34 µM	2.8 µM	0.362 µM	2.6 µM	0.249 µM	1.26 µM	1.8 µM	3.59 µM	11.4 µM	30.4 µM	13.7 µM	35.8 µM			0.351 µM	2.26 µM	1.64 µM	3.13 µM	0.365 µM	0.0249 µM
